These results are taken from ChEMBL document CHEMBL3880381, “Selective inhibitors of aggrecanase in osteoarthritis treatment” (2001).

The target of one assay is T1, Interstitial collagenase (Homo sapiens, UniProt P03956).
T1 sequence (P03956 whole entry): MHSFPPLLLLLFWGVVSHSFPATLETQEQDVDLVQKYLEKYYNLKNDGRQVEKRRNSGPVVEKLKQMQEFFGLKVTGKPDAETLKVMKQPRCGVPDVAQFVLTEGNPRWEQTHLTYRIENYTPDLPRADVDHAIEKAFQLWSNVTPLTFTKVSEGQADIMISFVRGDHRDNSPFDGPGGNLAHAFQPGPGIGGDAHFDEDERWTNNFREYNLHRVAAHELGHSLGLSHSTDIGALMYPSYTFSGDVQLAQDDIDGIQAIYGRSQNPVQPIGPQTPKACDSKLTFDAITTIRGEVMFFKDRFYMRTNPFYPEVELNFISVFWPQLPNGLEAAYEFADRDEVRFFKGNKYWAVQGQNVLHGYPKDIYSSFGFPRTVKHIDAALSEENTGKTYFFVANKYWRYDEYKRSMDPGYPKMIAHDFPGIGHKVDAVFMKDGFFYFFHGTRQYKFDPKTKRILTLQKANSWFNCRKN
Briefly: Inhibition of trypsin-activated recombinant human collagenase 1 preincubated with protein followed by addition of DNP-Pro-Cha-Gly-Cys(Me)-His-Ala-Lys(NMA)-NH2 as substrate measured after 20 mins by fluorescence analysis.

Another assay has as its target Collagenase 3 (Homo sapiens, UniProt P45452). Briefly: Inhibition of APMA-activated recombinant human collagenase 3 preincubated with protein followed by addition of DNP-Pro-Cha-Gly-Cys(Me)-His-Ala-Lys(NMA)-NH2 as substrate measured every 5 mins for 1 hr by fluorescence analysis.
The next assay deals with T2, Aggrecanase (Sus scrofa, UniProt F1S1A7+F1SHP0).
T2 sequence (F1S1A7 whole entry): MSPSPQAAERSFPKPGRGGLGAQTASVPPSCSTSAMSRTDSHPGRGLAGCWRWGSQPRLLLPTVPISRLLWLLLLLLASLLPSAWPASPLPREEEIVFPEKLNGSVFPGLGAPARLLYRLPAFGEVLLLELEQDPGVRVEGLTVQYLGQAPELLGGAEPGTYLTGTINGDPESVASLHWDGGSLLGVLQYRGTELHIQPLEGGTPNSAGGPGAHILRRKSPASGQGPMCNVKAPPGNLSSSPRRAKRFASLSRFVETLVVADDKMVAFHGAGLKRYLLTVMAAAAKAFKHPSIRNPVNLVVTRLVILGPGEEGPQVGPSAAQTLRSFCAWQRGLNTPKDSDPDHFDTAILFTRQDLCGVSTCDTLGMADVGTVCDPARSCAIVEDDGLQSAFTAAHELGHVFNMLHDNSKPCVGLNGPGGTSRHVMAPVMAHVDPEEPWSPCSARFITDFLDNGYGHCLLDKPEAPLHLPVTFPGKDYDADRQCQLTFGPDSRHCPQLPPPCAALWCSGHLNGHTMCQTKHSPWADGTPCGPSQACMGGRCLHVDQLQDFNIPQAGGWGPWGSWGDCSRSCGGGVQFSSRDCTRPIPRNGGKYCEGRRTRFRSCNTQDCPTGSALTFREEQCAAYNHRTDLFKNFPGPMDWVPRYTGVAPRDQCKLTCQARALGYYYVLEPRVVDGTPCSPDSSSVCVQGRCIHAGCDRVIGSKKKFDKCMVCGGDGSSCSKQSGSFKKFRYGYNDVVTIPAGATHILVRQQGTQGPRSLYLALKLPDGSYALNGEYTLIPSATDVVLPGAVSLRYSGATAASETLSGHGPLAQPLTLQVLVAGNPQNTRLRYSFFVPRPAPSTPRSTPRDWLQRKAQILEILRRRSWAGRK
T2 sequence (F1SHP0 whole entry): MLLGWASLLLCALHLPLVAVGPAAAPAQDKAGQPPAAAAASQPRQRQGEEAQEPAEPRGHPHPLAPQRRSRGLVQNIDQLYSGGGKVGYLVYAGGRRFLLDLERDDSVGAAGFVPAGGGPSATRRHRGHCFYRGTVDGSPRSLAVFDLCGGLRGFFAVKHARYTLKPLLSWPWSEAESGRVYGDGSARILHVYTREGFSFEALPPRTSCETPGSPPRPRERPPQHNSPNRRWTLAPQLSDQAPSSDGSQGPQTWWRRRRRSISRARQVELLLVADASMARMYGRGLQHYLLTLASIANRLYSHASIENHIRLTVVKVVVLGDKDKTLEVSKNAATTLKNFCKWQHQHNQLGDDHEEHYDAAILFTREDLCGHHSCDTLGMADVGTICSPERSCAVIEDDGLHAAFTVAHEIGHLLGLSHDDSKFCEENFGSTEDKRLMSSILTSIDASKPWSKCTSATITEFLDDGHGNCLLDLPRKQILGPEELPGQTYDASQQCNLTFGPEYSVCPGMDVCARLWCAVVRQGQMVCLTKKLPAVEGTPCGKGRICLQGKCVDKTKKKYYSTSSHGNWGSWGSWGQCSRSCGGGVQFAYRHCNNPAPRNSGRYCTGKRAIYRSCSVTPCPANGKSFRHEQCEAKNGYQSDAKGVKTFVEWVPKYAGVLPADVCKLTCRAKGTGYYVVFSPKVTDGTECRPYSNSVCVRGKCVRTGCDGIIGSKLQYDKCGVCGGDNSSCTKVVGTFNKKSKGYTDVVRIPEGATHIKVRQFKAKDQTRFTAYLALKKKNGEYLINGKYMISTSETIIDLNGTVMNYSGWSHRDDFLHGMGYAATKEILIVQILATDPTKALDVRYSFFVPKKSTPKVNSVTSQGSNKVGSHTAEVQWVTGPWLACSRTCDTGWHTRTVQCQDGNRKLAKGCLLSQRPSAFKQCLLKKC
Description: Inhibition of aggrecanase in primary porcine chondrocytes assessed as inhibition of 35S-proteoglycan release measured after 9 to 12 hrs by liquid scintillation counting method. It is filed as cell-based.

For assay [1], the target named is Disintegrin and metalloproteinase domain-containing protein 17 (Homo sapiens, UniProt P78536). Briefly: Inhibition of TACE in human mononuclear cells assessed as inhibition of LPS-induced TNF-alpha production measured after 4 hrs in presence of LPS by ELISA. It is filed as cell-based. Background: In an ELISA, binding on a coated surface is turned into a signal by an enzyme label.

Some results are limits rather than exact numbers.

Chain of Disintegrin and metalloproteinase domain-containing protein 17 (P78536 whole entry, the tested form may be a part): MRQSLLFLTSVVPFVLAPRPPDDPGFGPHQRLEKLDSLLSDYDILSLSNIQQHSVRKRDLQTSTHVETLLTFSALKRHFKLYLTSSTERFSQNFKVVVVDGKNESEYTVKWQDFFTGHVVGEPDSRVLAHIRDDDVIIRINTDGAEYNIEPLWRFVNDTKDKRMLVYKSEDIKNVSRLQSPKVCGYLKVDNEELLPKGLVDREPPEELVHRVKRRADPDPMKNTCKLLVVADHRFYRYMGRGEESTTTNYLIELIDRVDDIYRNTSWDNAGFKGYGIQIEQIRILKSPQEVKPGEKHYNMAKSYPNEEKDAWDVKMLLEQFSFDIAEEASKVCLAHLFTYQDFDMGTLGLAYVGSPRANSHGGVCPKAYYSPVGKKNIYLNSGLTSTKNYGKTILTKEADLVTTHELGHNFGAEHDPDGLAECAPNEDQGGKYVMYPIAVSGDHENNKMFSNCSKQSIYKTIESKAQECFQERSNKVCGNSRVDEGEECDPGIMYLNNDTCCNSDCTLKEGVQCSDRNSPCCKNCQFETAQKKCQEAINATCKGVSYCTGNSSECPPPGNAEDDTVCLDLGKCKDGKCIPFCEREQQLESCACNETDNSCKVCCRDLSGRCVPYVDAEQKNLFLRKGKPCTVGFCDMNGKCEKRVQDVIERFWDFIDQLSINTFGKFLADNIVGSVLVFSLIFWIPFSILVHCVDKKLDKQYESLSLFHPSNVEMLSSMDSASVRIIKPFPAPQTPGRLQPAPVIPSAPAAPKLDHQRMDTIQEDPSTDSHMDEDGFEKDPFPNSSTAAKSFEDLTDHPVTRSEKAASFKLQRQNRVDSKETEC

As for `CC1(C)C[C@@H](O)CN(S(=O)(=O)c2ccc(OCc3ccc(Cl)cc3Cl)cc2)[C@H]1C(=O)NO`, the IC50 (usually the concentration that inhibits the measured activity by half) is 200 to 1000 nM at Interstitial collagenase, less than 10 nM at Collagenase 3, less than 10 nM at Aggrecanase and 20000 to 40000 nM in assay [1].

`C[C@@]1(O)CCCN(S(=O)(=O)c2ccc(OCc3ccccc3F)cc2)[C@H]1C(=O)NO`: the half-inhibitory concentration (IC50) was in the range of 20 to 200 nM on Interstitial collagenase, 10 to 20 nM on Aggrecanase and 20000 to 40000 nM in assay [1].

For `C[C@@]1(O)CCCN(S(=O)(=O)c2ccc(OCc3ccccc3Cl)cc2)[C@H]1C(=O)NO`, the results for the IC50 (at Collagenase 3; at Aggrecanase; in assay [1]) were less than 10 nM, less than 10 nM and less than 10000 nM, respectively.

For `Cc1ccc(F)cc1COc1ccc(S(=O)(=O)N2CCC[C@@](C)(O)[C@@H]2C(=O)NO)cc1`, the IC50 on Collagenase 3 is less than 10 nM; on Aggrecanase, 10 to 20 nM; in assay [1], less than 10000 nM.

Take `Cc1ccccc1COc1ccc(S(=O)(=O)N2CCC[C@@](C)(O)[C@@H]2C(=O)NO)cc1`: the IC50 on Interstitial collagenase is 200 to 1000 nM; on Collagenase 3 it was less than 10 nM; at Aggrecanase it was less than 10 nM; in assay [1], less than 10000 nM.

Regarding `C[C@@]1(O)CCCN(S(=O)(=O)c2ccc(OCc3ccc(F)cc3Cl)cc2)[C@H]1C(=O)NO`, the concentration for half-maximal inhibition (IC50) on Interstitial collagenase is 200 to 1000 nM; on Collagenase 3, less than 10 nM; at Aggrecanase, less than 10 nM; in assay [1], 10000 to 20000 nM.

On to `Cc1c(F)cccc1COc1ccc(S(=O)(=O)N2C[C@H](O)CC(C)(C)[C@@H]2C(=O)NO)cc1`, for which the IC50 on Interstitial collagenase was 200 to 1000 nM; at Collagenase 3, less than 10 nM; at Aggrecanase, less than 10 nM; in assay [1] it was less than 10000 nM.

As to `Cc1cc(F)ccc1COc1ccc(S(=O)(=O)N2C[C@H](O)CC(C)(C)[C@@H]2C(=O)NO)cc1`, the concentration for half-maximal inhibition (IC50) is 200 to 1000 nM on Interstitial collagenase, less than 10 nM on Collagenase 3, less than 10 nM on Aggrecanase and less than 10000 nM in assay [1].

As for `Cc1c(F)cccc1COc1ccc(S(=O)(=O)N2CCC[C@@](C)(O)[C@@H]2C(=O)NO)cc1`, the IC50 was more than 1000 nM on Interstitial collagenase, less than 10 nM at Collagenase 3, 10 to 20 nM on Aggrecanase and less than 10000 nM in assay [1].

Take `Cc1cc(F)ccc1COc1ccc(S(=O)(=O)N2CCC[C@@](C)(O)[C@@H]2C(=O)NO)cc1`: the IC50 was less than 10 nM at Collagenase 3, less than 10 nM on Aggrecanase and less than 10000 nM in assay [1].

For `CC1(C)C[C@@H](O)CN(S(=O)(=O)c2ccc(OCc3ccccc3Br)cc2)[C@H]1C(=O)NO`, the concentration for half-maximal inhibition (IC50) is 200 to 1000 nM at Interstitial collagenase, less than 10 nM on Collagenase 3, 10 to 20 nM at Aggrecanase and less than 10000 nM in assay [1].

For `CC1(C)C[C@@H](O)CN(S(=O)(=O)c2ccc(OCc3ccc(F)cc3Cl)cc2)[C@H]1C(=O)NO`, the IC50 on Interstitial collagenase was 200 to 1000 nM; at Collagenase 3, less than 10 nM; on Aggrecanase it was less than 10 nM; in assay [1], 10000 to 20000 nM.

Turning to `NS(=O)(=O)c1ccc(CCNC(=O)[C@H](CC2CCCCC2)NC(=O)[C@H](CCCc2ccccc2)CC(=O)NO)cc1`, the concentration for half-maximal inhibition (IC50) in assay [1] was determined as 3000 nM.

Take `CCc1ccccc1COc1ccc(S(=O)(=O)N2CCN(C(=O)NC)[C@@H](C)[C@@H]2C(=O)NO)cc1`: the IC50 is more than 1000 nM on Interstitial collagenase, 20 to 200 nM at Collagenase 3, less than 10 nM on Aggrecanase and less than 10000 nM in assay [1].

Consider `Cc1cc(F)ccc1COc1ccc(S(=O)(=O)N2CC(=O)N[C@@H](C)[C@@H]2C(=O)NO)cc1`, for which the IC50 is more than 1000 nM on Interstitial collagenase, 10 to 20 nM at Collagenase 3, less than 10 nM on Aggrecanase and less than 10000 nM in assay [1].

Take `Cc1ccccc1COc1ccc(S(=O)(=O)N2CCC[C@](C)(O)[C@@H]2C(=O)NO)cc1`: the IC50 on Interstitial collagenase was 200 to 1000 nM; at Collagenase 3, less than 10 nM; at Aggrecanase it was 10 to 20 nM; in assay [1] it was less than 10000 nM.

In the case of `C[C@@]1(O)CCCN(S(=O)(=O)c2ccc(OCc3ccc(Cl)cc3Cl)cc2)[C@H]1C(=O)NO`, the IC50 on Interstitial collagenase is 200 to 1000 nM; on Collagenase 3, less than 10 nM; at Aggrecanase it was less than 10 nM; in assay [1] it was 10000 to 20000 nM.

With `CNC(=O)N1CCN(S(=O)(=O)c2ccc(OCc3ccc(F)cc3F)cc2)[C@@H](C(=O)NO)[C@@H]1C`, the concentration for half-maximal inhibition (IC50) at Interstitial collagenase was 200 to 1000 nM; on Collagenase 3, less than 10 nM; at Aggrecanase it was 10 to 20 nM; in assay [1], 10000 to 20000 nM.

Turning to `CC1(C)C[C@@H](O)CN(S(=O)(=O)c2ccc(OCc3cc(Cl)ccc3F)cc2)[C@H]1C(=O)NO`, the half-inhibitory concentration (IC50) on Interstitial collagenase is 200 to 1000 nM; on Collagenase 3, less than 10 nM; on Aggrecanase it was 10 to 20 nM; in assay [1], 10000 to 20000 nM.

For `C[C@@]1(O)CCCN(S(=O)(=O)c2ccc(OCc3ccc(F)cc3F)cc2)[C@H]1C(=O)NO`, the half-maximal inhibitory concentration (IC50) at Interstitial collagenase was 200 to 1000 nM; at Collagenase 3, less than 10 nM; at Aggrecanase it was 10 to 20 nM; in assay [1], 10000 to 20000 nM.

In the case of `CC1(C)C[C@@H](O)CN(S(=O)(=O)c2ccc(OCc3ccc(F)cc3)cc2)[C@H]1C(=O)NO`, the IC50 was 20 to 200 nM on Interstitial collagenase, less than 10 nM at Collagenase 3, less than 10 nM on Aggrecanase and 10000 to 20000 nM in assay [1].

`Cc1ccccc1COc1ccc(S(=O)(=O)N2CCN(C(=O)CN)[C@@H](C)[C@@H]2C(=O)NO)cc1`: the 50% inhibitory concentration (IC50) at Interstitial collagenase was more than 1000 nM; at Collagenase 3, 20 to 200 nM; at Aggrecanase, less than 10 nM; in assay [1], less than 10000 nM.

In the case of `Cc1ccc(F)cc1COc1ccc(S(=O)(=O)N2CC(=O)N[C@@H](C)[C@@H]2C(=O)NO)cc1`, the half-maximal inhibitory concentration (IC50) on Interstitial collagenase is more than 1000 nM; on Collagenase 3 it was 10 to 20 nM; on Aggrecanase it was less than 10 nM; in assay [1], less than 10000 nM.

Consider `Cc1ccc(Cl)cc1COc1ccc(S(=O)(=O)N2C[C@H](O)CC(C)(C)[C@@H]2C(=O)NO)cc1`, for which the IC50 at Interstitial collagenase was more than 1000 nM; on Collagenase 3, 20 to 200 nM; on Aggrecanase it was 10 to 20 nM; in assay [1], 10000 to 20000 nM.

For `CNC(=O)N1CCN(S(=O)(=O)c2ccc(OCc3cc(F)ccc3C)cc2)[C@@H](C(=O)NO)[C@@H]1C`, the IC50 is more than 1000 nM on Interstitial collagenase, less than 10 nM at Collagenase 3, less than 10 nM on Aggrecanase and less than 10000 nM in assay [1].

In the case of `CNC(=O)[C@H](Cc1ccc(OC)cc1)NC(=O)[C@@H](CC(=O)NO)CC(C)C`, at Collagenase 3, the IC50 was determined as 1 nM.
